Reference: PubChem BioAssay AID2060507 (Molecular Pharmacology Branch, DTP, NCI, 2025)

System: 519858-162-T-J1-PDC complex spheroid viability
Assay: Anticancer human tumor 519858-162-T-J1-PDC patient-derived colon adenocarcinoma cell line growth inhibition [GQUAD]
Settings: for IC50: curve of first compound; for viability, T/C: stronger effect = lower value
Text: DNA G-quadruplex Stabilizer Agents in Combinations in Complex Spheroids
A high-throughput screen of multi-cell type tumor spheroids was designed to identify active combinations of DNA G-quadruplex stabilizer agents and targeted small molecules. Complex spheroids include a stromal component modeled by human endothelial cells (HUVEC) and fibroblasts modeled by human mesenchymal stem cells (MSCs). The concentration ranges selected for each drug and investigational agent were based upon clinically achievable concentrations if the clinical Cmax of the agent was known.
Compounds. The drugs and investigational agents: pidnarulex (CX-5461; NSC782164), APTO-253 (NSC789042), BRACO-19 (NSC847499), peposertib (NSC802822), ceralasertib (NSC780249), elimusertib (NSC800525), camonsertib (NSC841442), AZD-1390 (NSC803789), olaparib (NSC753686), talazoparib (NSC767125), ART-558 (NSC835418), sotorasib (NSC818433), MRTX-1133 (NSC836407), SN-38 (NSC673596), topotecan (NSC609699), etoposide (NSC141540), doxorubicin (NSC123127), gemcitabine (NSC613327), 5-fluorouracil (NSC19893), paclitaxel (NSC125973), vemurafenib (NSC761431), panobinostat (NSC761190), R-306465 (JNJ-16241199; NSC773264), adavosertib (NSC754352), TP-3654 (NSC805149), carboplatin (NSC241240), KSQ-4279 (NSC840948), and staurosporine (NSC755774) were obtained from the National Cancer Institute (NCI) Developmental Therapeutics Program Chemical Repository (34). The FDA-approved anticancer drug set is available from the NCI Developmental Therapeutics Program. […] The stock solutions were prepared in dimethyl sulfoxide (DMSO, Sigma-Aldrich, St. Louis, MO, cat. D2650) at 800-fold the tested concentration and stored at -70 degrees C prior to their use. All drugs and investigational agents were tested over a range starting from a high concentration at or near the clinical Cmax and decreasing in half-log increments. If the clinical Cmax for an agent had not been determined, the highest concentration tested was 10 microM.
2.3 Cell Culture. All cells were maintained in an incubator at 37 degrees C and 5% CO2 with 95% humidity. The PDC lines were cultured according to standard operating procedures established by the NCI PDMR. All PDCs were thawed and cultured in Matrigel-coated flasks prepared with a working solution of 1X Ham's F-12 nutrient mix, without supplementation (Invitrogen, cat. 11765054), 100 U/mL penicillin-streptomycin (Invitrogen, cat. 15140122), and 2.5% Matrigel (Corning Inc., cat. 354248) for the first three passages. The 857933-349-R-J2-PDC line was cultured in 6C/Colon 1B media, which includes advanced DMEM/F-12 (Thermo Fisher Scientific, cat. 12634028), 10 mM HEPES (Thermo Fisher Scientific, cat. 15630080), 1X GlutaMAX supplement (Thermo Fisher Scientific, cat. 35050061), 0.1 mg/mL primocin (InvivoGen, cat. ant-pm-2), 10% defined fetal bovine serum, heat inactivated (HyClone Laboratories Inc., cat. SH30070.03HI), 50% L-WRN conditioned media (ATCC, cat. CRL-3276), 1.25 mM N-Acetyl-L-cysteine (Sigma-Aldrich, cat. A9165), 10 mM nicotinamide (Sigma-Aldrich, cat. N0636), 1X B-27 supplement (Thermo Fisher Scientific, cat. 17504044), 1X N-2 supplement (Thermo Fisher Scientific, cat. 17502048), 10 microM Y-27632 dihydrochloride (Tocris Bioscience, cat. 1254), and 50 ng/mL human EGF recombinant protein (Thermo Fisher Scientific, cat. PHG0311). The 485176-168-R4-J1-PDC line was cultured in Panc media, which includes all 6C/Colon 1B media components plus 100 ng/mL human FGF-10 (Thermo Fisher Scientific, cat. 100-26), 500 nM SB-431542 (Selleckchem, cat. S1067), and gastrin (Tocris, cat. 3006).
[…]

[1] = second compound 0.0316 µM, first compound 0.0316 µM
[2] = second compound 0.0316 µM, first compound 0.1 µM
[3] = second compound 0.0316 µM, first compound 0.316 µM
[4] = second compound 0.0316 µM, first compound 1 µM
[5] = second compound 0.0316 µM, first compound 3.16 µM
[6] = second compound 0.0316 µM, first compound 10 µM
[7] = second compound 0.1 µM, first compound 0.0316 µM
[8] = second compound 0.1 µM, first compound 0.1 µM
[9] = second compound 0.1 µM, first compound 0.316 µM
[10] = second compound 0.1 µM, first compound 1 µM
[11] = second compound 0.1 µM, first compound 3.16 µM
[12] = second compound 0.1 µM, first compound 10 µM
[13] = second compound 0.316 µM, first compound 0.0316 µM
[14] = second compound 0.316 µM, first compound 0.1 µM
[15] = second compound 0.316 µM, first compound 0.316 µM
[16] = second compound 0.316 µM, first compound 1 µM
[17] = second compound 0.316 µM, first compound 3.16 µM
[18] = second compound 0.316 µM, first compound 10 µM
[19] = second compound 1 µM, first compound 0.0316 µM
[20] = second compound 1 µM, first compound 0.1 µM
[21] = second compound 1 µM, first compound 0.316 µM
[22] = second compound 1 µM, first compound 1 µM
[23] = second compound 1 µM, first compound 3.16 µM
[24] = second compound 1 µM, first compound 10 µM
[25] = second compound 3.16 µM, first compound 0.0316 µM
[26] = second compound 3.16 µM, first compound 0.1 µM
[27] = second compound 3.16 µM, first compound 0.316 µM
[28] = second compound 3.16 µM, first compound 1 µM
[29] = second compound 3.16 µM, first compound 3.16 µM
[30] = second compound 3.16 µM, first compound 10 µM
[31] = second compound 10 µM, first compound 0.0316 µM
[32] = second compound 10 µM, first compound 0.1 µM
[33] = second compound 10 µM, first compound 0.316 µM
[34] = second compound 10 µM, first compound 1 µM
[35] = second compound 10 µM, first compound 3.16 µM
[36] = second compound 10 µM, first compound 10 µM
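Also: spheroids exposed to compounds for 7 days.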
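For viability, T/C in this document: 100% = DMSO vehicle control viability.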

CC(=O)O[C@H]1C(=O)[C@@]2(C)[C@H]([C@H](OC(=O)c3ccccc3)[C@]3(O)C[C@H](OC(=O)[C@H](O)[C@@H](NC(=O)c4ccccc4)c4ccccc4)C(C)=C1C3(C)C)[C@]1(OC(C)=O)CO[C@@H]1C[C@@H]2O + CN(C)c1ccc(Nc2c3ccc(NC(=O)CCN4CCCC4)cc3nc3cc(NC(=O)CCN4CCCC4)ccc23)cc1
IC50 (second compound 0.0316 µM): > 10 µM
IC50 (second compound 0.1 µM): > 10 µM
IC50 (second compound 0.316 µM): > 10 µM
IC50 (second compound 1 µM): > 10 µM
IC50 (second compound 3.16 µM): > 10 µM
IC50 (second compound 10 µM): > 10 µM
viability, T/C [1]: 84.6%
viability, T/C [2]: 95.5%
viability, T/C [3]: 137%
viability, T/C [4]: 86.5%
viability, T/C [5]: 61.9%
viability, T/C [6]: 119%
viability, T/C [7]: 74.1%
viability, T/C [8]: 134%
viability, T/C [9]: 89.5%
viability, T/C [10]: 82%
viability, T/C [11]: 111%
viability, T/C [12]: 98.4%
viability, T/C [13]: 89.7%
viability, T/C [14]: 86.5%
viability, T/C [15]: 96.8%
viability, T/C [16]: 69.7%
viability, T/C [17]: 92%
viability, T/C [18]: 115%
viability, T/C [19]: 87.4%
viability, T/C [20]: 74.9%
viability, T/C [21]: 70.7%
viability, T/C [22]: 64.5%
viability, T/C [23]: 84.8%
viability, T/C [24]: 86.3%
viability, T/C [25]: 79.1%
viability, T/C [26]: 68.1%
viability, T/C [27]: 70.8%
viability, T/C [28]: 55.3%
viability, T/C [29]: 75.9%
viability, T/C [30]: 84.6%
viability, T/C [31]: 68.2%
viability, T/C [32]: 62.4%
viability, T/C [33]: 63.9%
viability, T/C [34]: 55.1%
viability, T/C [35]: 80.3%
viability, T/C [36]: 72.7%

CC1COCCN1c1cc(C2(S(C)(=N)=O)CC2)nc(-c2ccnc3[nH]ccc23)n1 (stereo not drawn) + CN(C)c1ccc(Nc2c3ccc(NC(=O)CCN4CCCC4)cc3nc3cc(NC(=O)CCN4CCCC4)ccc23)cc1
IC50 (second compound 0.0316 µM): > 10 µM
IC50 (second compound 0.1 µM): > 10 µM
IC50 (second compound 0.316 µM): > 10 µM
IC50 (second compound 1 µM): > 10 µM
IC50 (second compound 3.16 µM): > 10 µM
IC50 (second compound 10 µM): > 10 µM
viability, T/C [1]: 115%
viability, T/C [2]: 102%
viability, T/C [3]: 119%
viability, T/C [4]: 115%
viability, T/C [5]: 98.3%
viability, T/C [6]: 77.7%
viability, T/C [7]: 133%
viability, T/C [8]: 124%
viability, T/C [9]: 125%
viability, T/C [10]: 110%
viability, T/C [11]: 94.2%
viability, T/C [12]: 70%
viability, T/C [13]: 123%
viability, T/C [14]: 108%
viability, T/C [15]: 81.1%
viability, T/C [16]: 79.7%
viability, T/C [17]: 91.1%
viability, T/C [18]: 100%
viability, T/C [19]: 88.2%
viability, T/C [20]: 88.3%
viability, T/C [21]: 90.8%
viability, T/C [22]: 105%
viability, T/C [23]: 86.5%
viability, T/C [24]: 100%
viability, T/C [25]: 93.3%
viability, T/C [26]: 60.1%
viability, T/C [27]: 93.9%
viability, T/C [28]: 111%
viability, T/C [29]: 84.8%
viability, T/C [30]: 66.1%
viability, T/C [31]: 79.3%
viability, T/C [32]: 62.7%
viability, T/C [33]: 82.8%
viability, T/C [34]: 99.5%
viability, T/C [35]: 82.5%
viability, T/C [36]: 84.8%

COc1ccc([C@@H](O)c2cc(-c3ncnc4cc(N5CCOCC5)ccc34)c(F)cc2Cl)nn1 + CN(C)c1ccc(Nc2c3ccc(NC(=O)CCN4CCCC4)cc3nc3cc(NC(=O)CCN4CCCC4)ccc23)cc1
IC50 (second compound 0.0316 µM): > 10 µM
IC50 (second compound 0.1 µM): > 10 µM
IC50 (second compound 0.316 µM): > 10 µM
IC50 (second compound 1 µM): > 10 µM
IC50 (second compound 3.16 µM): > 10 µM
IC50 (second compound 10 µM): > 10 µM
viability, T/C [1]: 113%
viability, T/C [2]: 130%
viability, T/C [3]: 110%
viability, T/C [4]: 82.1%
viability, T/C [5]: 98%
viability, T/C [6]: 97.7%
viability, T/C [7]: 119%
viability, T/C [8]: 90.7%
viability, T/C [9]: 92.1%
viability, T/C [10]: 148%
viability, T/C [11]: 87.9%
viability, T/C [12]: 127%
viability, T/C [13]: 86.8%
viability, T/C [14]: 108%
viability, T/C [15]: 95.2%
viability, T/C [16]: 92.5%
viability, T/C [17]: 104%
viability, T/C [18]: 85.8%
viability, T/C [19]: 92.6%
viability, T/C [20]: 75.7%
viability, T/C [21]: 72%
viability, T/C [22]: 88.7%
viability, T/C [23]: 57.4%
viability, T/C [24]: 82.2%
viability, T/C [25]: 102%
viability, T/C [26]: 65.1%
viability, T/C [27]: 53.8%
viability, T/C [28]: 66.3%
viability, T/C [29]: 94.1%
viability, T/C [30]: 83.5%
viability, T/C [31]: 74.5%
viability, T/C [32]: 95.2%
viability, T/C [33]: 73.4%
viability, T/C [34]: 86.1%
viability, T/C [35]: 72.4%
viability, T/C [36]: 88.4%

O=C(c1cc(Cc2n[nH]c(=O)c3ccccc23)ccc1F)N1CCN(C(=O)C2CC2)CC1 + Cc1[nH]c2ccc(F)cc2c1-c1nc2c3cccnc3c3ncccc3c2[nH]1
IC50 (second compound 0.0316 µM): > 10 µM
IC50 (second compound 0.1 µM): > 10 µM
IC50 (second compound 0.316 µM): > 10 µM
IC50 (second compound 1 µM): > 10 µM
IC50 (second compound 3.16 µM): < 0.0316 µM
IC50 (second compound 10 µM): > 10 µM
viability, T/C [1]: 122%
viability, T/C [2]: 85.5%
viability, T/C [3]: 82.7%
viability, T/C [4]: 66.6%
viability, T/C [5]: 68%
viability, T/C [6]: 111%
viability, T/C [7]: 110%
viability, T/C [8]: 85.3%
viability, T/C [9]: 87.7%
viability, T/C [10]: 102%
viability, T/C [11]: 103%
viability, T/C [12]: 63.6%
viability, T/C [13]: 105%
viability, T/C [14]: 97.9%
viability, T/C [15]: 81.9%
viability, T/C [16]: 100%
viability, T/C [17]: 75.6%
viability, T/C [18]: 97.1%
viability, T/C [19]: 82.7%
viability, T/C [20]: 100%
viability, T/C [21]: 102%
viability, T/C [22]: 81.2%
viability, T/C [23]: 69.9%
viability, T/C [24]: 95.3%
viability, T/C [25]: 49.2%
viability, T/C [26]: 63%
viability, T/C [27]: 92%
viability, T/C [28]: 59.2%
viability, T/C [29]: 79.8%
viability, T/C [30]: 71.1%
viability, T/C [31]: 86.1%
viability, T/C [32]: 69.9%
viability, T/C [33]: 52.6%
viability, T/C [34]: 81.6%
viability, T/C [35]: 51.8%
viability, T/C [36]: 53.7%
